Experiments:
[1] = test system: spleen T lymphocyte subpopulations; experiment: Spleen T lymphocyte subpopulations by direct immunofluorescence after treatment of mice; format: in vivo, C57B1/6 mice; settings: 160 mg/kg/day in the drinking water for 4 days
Protocol: C57B1/6 mice were given Linomide® (160 mg/kg/day) in the drinking water for 4 days. Control animals were given ordinary drinking water. […] 134:3956, 1985] and examined for the expression of cell surface markers by direct immunofluorescence. The following FITC-labeled monoclonal antibodies were used: HO-134 (Thy 1.2), GK 1.5 (CD4) and 19. 178c (CD8) [for reference to antibodies see Kalland, T.: Regulation of NK progenitors: Studies with a novel immunmodulator with distinct effects at the precursor level, J. Immunol. 144:4472-6, 1990]. The number of positive cells was determined by counting 400 cells in an epifluoroscence equipped Leitz microscope. Values represent mean ± SD of three mice.

Half life in mice = format: in vivo
[2] = Half life in cynomolgus monkeys; format: in vivo
Half life in rats = settings: rat, in vivo
Half life in humans = settings: human, in vivo
YAC-1 cells = experiment: Spleen NK activity, conventional 51Cr-release assay after treatment of mice; settings: 160 mg/kg/day in the drinking water for four days; for % CYTOTOXICITY: 3 mice
SIVsm = SIVsm infection of cynomolgus monkeys (body weight, CD4 cells, virus isolation, clinical state); settings: result in words
Description: Nine cynomolgus monkeys (Macaca Fascicularis) were used in this study. The mean body mass was 2600 g and the range was 2260 to 2930 g. The monkeys were housed in single cages in a biosafety level three facility. […] The absence of pre-existing retrovirus was further investigated by cocultivating monkey PBMC (=peripheral blood mononuclear cells) with human PHA-stimulated PBMC and testing of culture supernatants for reverse transcriptase activity.
Intraperitoneal treatment with Linomide® or NaCl started four days before challenge with live virus and subsequently every day (not during weekends) subcutaneosly during the time of follow-up. The follow-up is 75 days after live virus challenge. Monkeys L1-3 were treated with a low dose Linomide® 0.3 mg/kg bw x 2 Monkeys L4-6 were treated with a high dose Linomide® 3 mg/kg bw x 2 Monkeys L7-9 were given sodium chloride x 2 All monkeys were challenged with 10-100 animal ID₅₀ of live SIVsm. Animals were sacrificed when they became moribund.
T-lymphocyte subsets in peripheral blood were determined by immunofluorescence as previously described [Putkonen, P., Warstedt, K., Thorstensson, R., Benthin, R., Albert, J., Lundgren, B., Öberg, B., Norrby, E., Biberfeld, G.: Experimental infection of cynomolgus monkeys (Macaca Fascicularis with simian immunodeficiency virus (SIVsm), J. AIDS 1989:2, 359-365]. Peripheral blood samples were incubated with FITC-conjugated anti-CD4 (OKT4, Ortho) and anti-CD8 (Leu2, Becton Dickinson). The samples were analyzed in a Spectrum III flow cytometer (Ortho Diagnostics).

[3] = spleen cells, mean ± SD of three mice

Question: For `CN(C(=O)c1c(O)c2ccccc2n(C)c1=O)c1ccccc1` [Linomide®, N-phenyl-N-methyl-1,2-dihydro-4-hydroxy-1-methyl-2-oxo-quinoline-3-carboxamide], which “% Fluorescent cells CD4” value [1, 3] is on record?
Answer: 28±2%

Question: What about the “% Fluorescent cells CD8” value [1, 3] of the same compound?
Answer: 10±3%

Question: What about the “% Fluorescent cells Thy 1.2” value [1, 3] of the same compound?
Answer: 42±5%

Question: What about the “distribution of T lymphocyte subpopulations” value ([1]; result in words) of the same compound?
Answer: do not significantly altler the distribution of T lymphocyte subpopulations

Question: And the half life (Half life in mice)?
Answer: two

Question: And the half life [2]?
Answer: six

Question: What about the half-life (Half life in rats) of the same compound?
Answer: 1440 min

Question: And the half-life (Half life in humans)?
Answer: ~2880 min

Question: And the “% CYTOTOXICITY” value (YAC-1 cells; Effector cell: Target cell ratio 25:1)?
Answer: 14±4%

Question: What about the “% CYTOTOXICITY” value (YAC-1 cells; Effector cell: Target cell ratio 50:1) of the same compound?
Answer: 20±4%

Question: And the “% CYTOTOXICITY” value (YAC-1 cells; Effector cell: Target cell ratio 100:1)?
Answer: 29±5%

Question: What about the NK activity (YAC-1 cells; result in words) of the same compound?
Answer: significantly enhances NK activity

Question: And the “qualitative virus isolation assay” value (SIVsm; all monkeys (low dose, high dose and control), 14 days after challenge)?
Answer: virus could be isolated from all monkeys

Question: And the body weight (SIVsm; high dose group (3 mg/kg bw x 2), one monkey)?
Answer: dramatic reduction in body weight

Question: And the “percentage of CD4⁺ cells in peripheral blood” value (SIVsm; low dose (0.3 mg/kg bw x 2))?
Answer: essentially unaltered

Question: And the body weight (SIVsm; monkeys L1-3, 0.6 mg/kg/day)?
Answer: Only a slight weight reduction

Question: What about the clinical condition (SIVsm; monkeys L1-3 = low dose (0.3 mg/kg bw x 2)) of the same compound?
Answer: remained clinically healthy

Reference: patent EP0516725B1, “NEW USE OF LINOMIDE (R)” (Pharmacia AB (reg.number 556131-9608), priority 1990, dated 1991)
